From patent US11344510B2, “Arylcyclohexylamine derivatives and their use in the treatment of psychiatric disorders” (Gilgamesh Pharmaceuticals, Inc., priority 2019, dated 2022)
Entries after “also recorded” stand apart in the source; their conditions may differ. Like-named read-outs stand apart in the source and are kept apart here.

How the values were obtained:
CSDS-susceptible mice = test: Behavioral tests after chronic social defeat stress (CSDS); assay type: in vivo, C57BL/6 mice; conditions: 10 mg/kg i.p., single dose
mice (forced swim test) = test: Forced swim test in mice, 30-minute pre-treatment; assay type: in vivo, Swiss Webster mice; conditions: s.c., 30 minutes before test, relative to vehicle
Method: Animals. Male Swiss Webster mice, aged 4-5 weeks (body weight 25-30 g, Envigo) were used in the experiments Animals were housed in groups of 4-5 under controlled temperatures and 12-hour light/dark cycles, with ad libitum food (Teklad 7001 rodent diet) and water. These studies were carried out in strict accordance with the recommendations in the Guide for the Care and Use of Laboratory Animals of the National Institutes of Health. All efforts were made to minimize suffering.
Drugs and Drug Administration. Imipramine hydrochloride was administered intraperitoneally (i.p.) at a dose of 30 mg/kg. Other compounds were tested as the racemates (indicated by “rac” nomenclature) and were administered subcutaneously (s.c.) as the hydrochloride salts. Normal saline was used as the vehicle and all compounds were administered at a volume of 10 mL/kg, 30 minutes before behavioral testing.
Forced Swim Test (FST). Group size was n=10 per treatment Animals were acclimated to the testing room 30 minutes prior to behavioral testing. Mice were placed individually in a cylinder of water measuring 5 inches wide by 10 inches tall and maintained at 24-25° C. The activity of each mouse was recorded for 6 minutes using Noldus Ethovision tracking software, with periods of inactivity being automatically quantified.
Statistical Analysis. The data points shown are the mean±standard error of the mean (SEM). Analysis was performed using GraphPad Prism 6. Indicated statistical comparisons represent the results of unpaired, two-tailed t tests relative to vehicle (not corrected for multiple comparisons).

[1] = HLM stability (Low Activity); assay type: in vitro ADME; conditions: both sexes, human, liver microsomes, pH 7.4, Condition 1 (Low Activity), 0.42 mg protein/mL
Method: For some of the compounds, stability was tested under two microsomal incubation conditions, one with normal enzymatic activity (low activity) and one with higher enzymatic loading, longer incubation time, and lower compound concentration (high activity) intended to increase metabolic lability.
HLM Stability (Low Activity). Pooled HLM from adult male and female donors (XenoTech H0630) were used. Microsomal incubations were carried out in 96-well plates in 5 aliquots of 40 μL, each (one for each time point). Liver microsomal incubation medium consisted of PBS (100 mM, pH 7.4), MgCl2 (3.3 mM), NADPH (3 mM), glucose-6-phosphate (5.3 mM), and glucose-6-phosphate dehydrogenase (0.67 units/mL), with 0.42 mg of liver microsomal protein per mL. Control incubations were performed by replacing the NADPH-cofactor system with PBS. Test compounds (2 μM, final solvent concentration 1.6%) were incubated with microsomes at 37° C., shaking at 100 rpm. Incubations were performed in duplicate. Five time points over 40 minutes were analyzed. The reactions were stopped by adding 12 volumes of 90% acetonitrile-water to incubation aliquots, followed by protein sedimentation by centrifugation at 5500 rpm for 3 minutes. Supernatants were analyzed for parent compound remaining using a fit-for-purpose liquid chromatography-tandem mass spectrometry (LC-MS/MS) method, with authentic samples of each analyte used for identity confirmation.
(§1) Data Analysis. The elimination constant (kel), half-life (t1/2) and intrinsic clearance (Clint) were determined in a plot of […] versus time, using linear regression analysis.

[2] = HLM stability (High Activity); assay type: in vitro ADME; conditions: both sexes, human, liver microsomes, pH 7.4, Condition 2 (High Activity), 1.0 mg protein/mL
In short: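 Pooled male and female human liver microsomes, 1.0 mg protein/mL, in 100 mM PBS pH 7.4 with NADPH-regenerating system; compound 1 μM at 37° C, five time points over 60 min. Parent remaining by LC-MS/MS; kel, t1/2 and Clint from linear regression of ln(AUC) versus time.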

[3] = Oral bioavailability in mice, Method A; assay type: in vivo; conditions: CD-1 mice; for F: 10 mg/kg; for half-life / Cmax / AUC(0-inf): male, mouse
Method: Animals. Male CD-1 mice were used in these studies Animals were randomly assigned to treatment groups and were fasted for 4 h before dosing.
Drugs. Test compounds were dissolved in normal saline (ketamine) or de-ionized water (other compounds) and administered intravenously (iv) or orally (po) at a dose of 10 mg/kg (calculated based on freebase) and at a volume of 5 mL/kg body weight. Compounds were tested as the racemates (indicated by “rac” nomenclature) or pure enantiomers (indicated by “R” or “S” nomenclature).
Sample Collection and Bioanalysis. Blood samples were collected under 2,2,2-tribromoethanol anesthesia (150 mg/kg, ip) from the orbital sinus at 0.083, 0.25, 0.5, 1, 2, 4, 8 and 24 h (4 animals per time point) into microcontainers containing K2EDTA Immediately after collection of blood, mice were euthanized by cervical dislocation and brain samples were collected at the same time points. All samples were immediately processed, flash-frozen, and stored at −70° C. until subsequent analysis. Plasma samples were separated by centrifugation of whole blood and aliquots (50 μL) were mixed with 200 μL of internal standard solution (400 ng/mL in 1:1 v/v CH3CN:MeOH). After mixing by pipetting and centrifuging for 4 min at 6000 rpm, 0.5 μL of each supernatant was analyzed for drug using a fit-for-purpose liquid chromatography-tandem mass spectrometry (LC-MS/MS) method, with authentic samples of each analyte used for calibration and identification. Brain samples (weight 100 mg±1 mg) were dispersed in 500 μL, of internal standard solution (400 ng/mL in 4:1 v/v MeOH:water) using zirconium oxide beads (115 mg±5 mg) in The Bullet Blender® homogenizer for 30 s at speed 8. After homogenization, the samples were centrifuged for 4 min at 14,000 rpm and 0.5 μL of each supernatant was analyzed for drug using a fit-for-purpose LC-MS/MS method, with authentic samples of each analyte used for calibration and identification.
Data Analysis. The drug concentrations of samples below the lower limit of quantitation (LLOQ) were designated as zero. Pharmacokinetic data analysis was performed using noncompartmental, bolus injection or extravascular input analysis models in WinNonlin 5.2 (PharSight). Data points below LLOQ were presented as missing to improve validity of t112 calculations.

[4] = biological target: MK-801 binding site of the N-methyl-D-aspartate receptor (NMDAR); test: NMDAR radioligand binding with [3H]MK-801, Method A; design: species or system Wistar rat; conditions: MK-801 site, Method A, Wistar rat brain (minus cerebellum), 5.0 nM [3H]MK-801; read-out: NMDAR Ki ± SEM
Method: Radioligand Binding—Method A. Affinity of the test compounds for NMDAR was determined in radioligand binding experiments with [^3H]MK-801 by Eurofins Panlabs, Inc., using methods adapted from the literature (Javitt et al. 1987; Reynolds et al. 1989) and under the conditions described in Table 12.

MK-801 site of NMDAR = MK-801 site of NMDAR (Rattus norvegicus, UniProt P35439); conditions: read-out: NMDAR Ki ± SEM, from Ebert et al. 1997; cited from earlier work
[5] = RLM stability (High Activity); assay type: in vitro ADME, Sprague Dawley rats
Method: (§2) RLM Stability (High Activity). Pooled RLM from male Sprague Dawley rats (XenoTech R1000, lot #1910100) were used. Microsomal incubations were carried out in 96-well plates in 5 aliquots of 40 μL each (one for each time point). Liver microsomal incubation medium consisted of PBS (100 mM, pH 7.4), MgCl2 (3.3 mM), NADPH (3 mM), glucose-6-phosphate (5.3 mM), and glucose-6-phosphate dehydrogenase (0.67 units/mL), with 1.0 mg of liver microsomal protein per mL. Control incubations were performed by replacing the NADPH-cofactor system with PBS. Test compounds (1 μM, final solvent concentration 1.6%) were incubated with microsomes at 37° C., shaking at 100 rpm. Incubations were performed in duplicate. Five time points over 60 minutes were analyzed. The reactions were stopped by adding 9 volumes of 90% acetonitrile-water to incubation aliquots, followed by protein sedimentation by centrifugation at 5500 rpm for 3 minutes. Supernatants were analyzed for parent compound remaining using a fit-for-purpose liquid chromatography-tandem mass spectrometry (LC-MS/MS) method, with authentic samples of each analyte used for identity confirmation.
as §1

[6] = biological target: T1, norepinephrine transporter (NET) (Homo sapiens, UniProt P23975); test: Fluorescent substrate uptake inhibition, NET; assay type: cell-based; conditions: 10 μM, HEK293 cells expressing NET
T1 construct: expressed in transfected cells; host or cells: HEK293

[7] = biological target: T2, vesicular monoamine transporter 2 (VMAT2) (Homo sapiens, UniProt Q05940); test: Fluorescent substrate uptake inhibition, VMAT2; assay type: cell-based; conditions: 10 μM, transfected cells
T2 construct: expressed in transfected cells

[8] = Formation of metabolites 11R/11S in RLM (High Activity conditions); assay type: in vitro ADME, Sprague Dawley rats; conditions: LC-MS/MS
Method: as §2, with “The reactions were stopped by adding 9 volumes of 90% acetonitrile-water to incubation aliquots, followed by protein sedimentation by centrifugation at 5500 rpm for 3 minutes.” left out
This condition was also used for experiments measuring the formation of metabolite 11R from compounds 14R and 88R and formation of metabolite 11S from compounds 14S and 88S. The concentrations of 11R and 11S formed during the incubations were quantified using a fit-for-purpose liquid chromatography-tandem mass spectrometry (LC-MS/MS) method, with authentic samples of each analyte used for calibration and identity confirmation.

[9] = MLM stability (High Activity); assay type: in vitro ADME, BALB/c mice; conditions: male, BALB/c, mouse, liver microsomes, pH 7.4, Condition 2 (High Activity), 1.0 mg protein/mL
In short: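 Pooled male BALB/c mouse liver microsomes (1.0 mg/mL) in 100 mM PBS pH 7.4 with NADPH-regenerating system; compound 1 μM, 37 °C, five time points over 60 min, duplicate; NADPH-free controls. Parent remaining by LC-MS/MS; kel, t1/2 and Clint from linear regression of ln(AUC) versus time.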

[10] = biological target: T3, serotonin transporter (SERT) (Homo sapiens, UniProt P31645); test: Fluorescent substrate uptake inhibition, SERT; assay type: cell-based; conditions: 10 μM, HEK293 cells expressing SERT
T3 construct: expressed in transfected cells; host or cells: HEK293

[11] = biological target: T4, dopamine transporter (DAT) (Homo sapiens, UniProt Q01959); test: Fluorescent substrate uptake inhibition, DAT; assay type: cell-based; conditions: 10 μM, CHO cells expressing DAT
T4 construct: expressed in transfected cells; host or cells: CHO (uptake)

[12] = biological target: MK-801 binding site of the N-methyl-D-aspartate receptor (NMDAR); test: NMDAR radioligand binding with [3H]MK-801, Method B; design: species or system Sprague Dawley rat; conditions: MK-801 site, Method B, male Sprague Dawley rat cortex, 5.0 nM [3H]MK-801; read-out: NMDAR Ki ± SEM
Method: Radioligand Binding—Method B. Affinity of the test compounds for NMDAR was determined in radioligand binding experiments with [^3H]MK-801 by WuXi AppTec (Hong Kong) Limited, under the conditions described in Table 13.

[13] = male, Sprague Dawley, rat, liver microsomes, pH 7.4, Condition 2 (High Activity), 1 μM, 1.0 mg protein/mL

T4 sequence (Q01959 whole entry, species assumed): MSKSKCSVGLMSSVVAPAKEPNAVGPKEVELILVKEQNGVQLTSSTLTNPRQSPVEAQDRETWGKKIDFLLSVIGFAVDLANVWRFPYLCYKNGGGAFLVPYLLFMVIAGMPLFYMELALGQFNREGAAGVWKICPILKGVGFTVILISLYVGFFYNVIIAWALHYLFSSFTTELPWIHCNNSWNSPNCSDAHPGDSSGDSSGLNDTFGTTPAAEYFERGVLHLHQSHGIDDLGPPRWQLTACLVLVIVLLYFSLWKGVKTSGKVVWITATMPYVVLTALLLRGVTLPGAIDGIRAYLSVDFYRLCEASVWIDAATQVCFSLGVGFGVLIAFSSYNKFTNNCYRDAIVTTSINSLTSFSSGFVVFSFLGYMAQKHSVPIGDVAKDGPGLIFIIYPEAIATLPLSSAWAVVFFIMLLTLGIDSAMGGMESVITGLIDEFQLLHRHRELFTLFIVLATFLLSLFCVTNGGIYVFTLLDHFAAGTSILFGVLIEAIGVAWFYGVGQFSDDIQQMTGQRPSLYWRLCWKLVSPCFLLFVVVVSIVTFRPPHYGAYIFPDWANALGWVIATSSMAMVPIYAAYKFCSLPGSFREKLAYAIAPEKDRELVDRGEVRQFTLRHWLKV
T1 sequence (P23975 whole entry, species assumed): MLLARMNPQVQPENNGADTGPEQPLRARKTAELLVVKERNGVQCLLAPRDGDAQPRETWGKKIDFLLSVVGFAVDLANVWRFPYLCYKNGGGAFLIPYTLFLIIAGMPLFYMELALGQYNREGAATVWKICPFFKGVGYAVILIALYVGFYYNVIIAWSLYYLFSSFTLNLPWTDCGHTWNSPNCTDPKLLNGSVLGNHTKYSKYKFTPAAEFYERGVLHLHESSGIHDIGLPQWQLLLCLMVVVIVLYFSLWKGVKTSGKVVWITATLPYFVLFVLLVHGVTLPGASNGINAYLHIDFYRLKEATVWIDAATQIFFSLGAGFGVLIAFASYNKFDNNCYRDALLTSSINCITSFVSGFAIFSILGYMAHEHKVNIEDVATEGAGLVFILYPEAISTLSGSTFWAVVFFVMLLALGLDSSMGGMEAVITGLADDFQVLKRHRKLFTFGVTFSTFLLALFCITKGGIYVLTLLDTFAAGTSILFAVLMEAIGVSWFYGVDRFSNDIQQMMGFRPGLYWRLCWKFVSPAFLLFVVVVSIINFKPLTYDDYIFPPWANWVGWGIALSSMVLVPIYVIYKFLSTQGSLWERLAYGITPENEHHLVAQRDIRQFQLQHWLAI
T2 sequence (Q05940 whole entry, species assumed): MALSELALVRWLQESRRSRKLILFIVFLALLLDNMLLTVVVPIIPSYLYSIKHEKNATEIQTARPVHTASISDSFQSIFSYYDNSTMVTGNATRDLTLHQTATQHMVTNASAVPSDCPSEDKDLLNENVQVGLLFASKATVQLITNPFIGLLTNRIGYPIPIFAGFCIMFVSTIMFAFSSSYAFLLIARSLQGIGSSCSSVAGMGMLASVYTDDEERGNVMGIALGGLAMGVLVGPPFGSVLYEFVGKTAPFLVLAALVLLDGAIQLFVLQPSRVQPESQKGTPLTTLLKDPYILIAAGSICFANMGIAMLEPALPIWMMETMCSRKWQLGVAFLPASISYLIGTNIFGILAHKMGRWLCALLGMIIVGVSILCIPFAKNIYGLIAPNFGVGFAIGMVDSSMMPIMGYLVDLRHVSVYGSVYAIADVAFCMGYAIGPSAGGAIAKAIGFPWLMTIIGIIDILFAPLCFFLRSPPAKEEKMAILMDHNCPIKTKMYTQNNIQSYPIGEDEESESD
T3 sequence (P31645 whole entry, species assumed): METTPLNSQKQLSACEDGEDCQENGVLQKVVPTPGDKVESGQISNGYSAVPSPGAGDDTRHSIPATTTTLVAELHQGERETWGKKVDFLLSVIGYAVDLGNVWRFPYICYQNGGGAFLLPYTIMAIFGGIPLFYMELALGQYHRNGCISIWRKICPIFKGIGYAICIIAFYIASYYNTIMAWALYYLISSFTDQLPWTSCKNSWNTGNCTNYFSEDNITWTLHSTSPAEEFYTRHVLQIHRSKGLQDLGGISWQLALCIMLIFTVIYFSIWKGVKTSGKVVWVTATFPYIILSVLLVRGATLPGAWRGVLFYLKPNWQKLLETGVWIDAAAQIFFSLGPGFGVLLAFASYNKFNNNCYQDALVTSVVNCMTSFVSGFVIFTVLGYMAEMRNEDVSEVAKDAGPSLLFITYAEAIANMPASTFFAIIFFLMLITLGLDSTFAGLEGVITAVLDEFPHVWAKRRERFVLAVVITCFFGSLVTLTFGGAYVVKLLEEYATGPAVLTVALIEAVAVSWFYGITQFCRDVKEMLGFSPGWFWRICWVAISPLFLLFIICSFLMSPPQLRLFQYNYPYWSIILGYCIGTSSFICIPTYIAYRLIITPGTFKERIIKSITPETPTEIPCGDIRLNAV

## CNC1(c2ccccc2F)CCCCC1=O (racemic) [Compound 35rac, 2-(2-Fluorophenyl)-2-(methylamino)cyclohexan-1-one]
CSDS-susceptible mice
  antidepressant-like activity in behavioral tests after CSDS (TST, FST, SPT): superior to 37rac; also recorded: reversed the pro-depressive effects
Mice (forced swim test)
  immobility time in FST: did not have effects
[1]
  half-life at 2 μM: 171 min
  microsomal CLint at 2 μM: 10 µL/min/mg
[2]
  half-life at 1 μM: 148 min
  microsomal CLint at 1 μM: 5 µL/min/mg
[3]; brain, 10 mg/kg iv
  AUC0-inf (iv): 186,000 ng*min/g
[3]; brain, 10 mg/kg po
  AUC0-inf (po): 34,200 ng*min/g
  Cmax: 1840 ng/g
[3]; calculated based on brain exposure
  F: 18%
[3]; brain, 10 mg/kg iv, read-out: t1/2 (iv)
  half-life: 16.1 min
[3]; brain, 10 mg/kg po, read-out: t1/2 (po)
  half-life: 19.1 min
[3]; plasma, 10 mg/kg iv, read-out: AUC0-inf (iv) (converted)
  AUC(0-inf): 1300 ng·h/mL
[3]; plasma, 10 mg/kg iv, read-out: t1/2 (iv)
  half-life: 15.1 min
[3]; plasma, 10 mg/kg po
  Cmax: 618 ng/mL
[3]; plasma, 10 mg/kg po, read-out: AUC0-inf (po) (converted)
  AUC(0-inf): 363 ng·h/mL
[3]; plasma, 10 mg/kg po, read-out: t1/2 (po)
  half-life: 19.7 min
[3]; plasma, absolute oral bioavailability
  F: 28%
[4]
  Ki: 1820 nM

## CN[C@@]1(c2ccccc2Cl)CCCCC1=O (single isomer, unassigned) [(R)-ketamine, ketamine]
MK-801 site of NMDAR
  Ki: 1400 ± 100 nM

## CN[C@]1(c2ccccc2Cl)CCCCC1=O (single isomer, unassigned) [(S)-ketamine, ketamine]
MK-801 site of NMDAR
  Ki: 300 ± 13 nM

## [2H]C([2H])([2H])N[C@]1(c2ccccc2)CCCCC1=O [Compound 88S, (S)-2-((methyl-d3)amino)-2-phenylcyclohexan-1-one]
[5]; High Activity
  metabolic stability compared to non-deuterated counterparts 14R and 14S: increased metabolic stability
[5]; [13]
  half-life at 1 μM: 52.8 min
  microsomal CLint at 1 μM: 13 µL/min/mg
[6]
  inhibition at 10 µM: 21.6%
[7]
  inhibition at 10 µM: -6%
[8]
  formation of metabolites 11R and 11S compared to non-deuterated counterparts: attenuated formation; also recorded: decreased formation
[9]
  half-life at 1 μM: 111 min
  microsomal CLint at 1 μM: 6 µL/min/mg
[10]
  inhibition at 10 µM: 28.2%
[11]
  inhibition at 10 µM: 18.6%
[2]
  half-life at 1 μM: 167 min
  microsomal CLint at 1 μM: 4 µL/min/mg
[12]
  Ki: 800 nM
